{"source": "patent US20240415804A1", "about": "“METHOD OF TREATING PANCREATIC CANCER” (University of South Florida, priority 2022, published 2024)", "key": {"Panc02 cells": {"tested_on": "Panc02 cells", "experiment": "Apoptosis by flow cytometry (Annexin V and PI), Panc02", "format": "cell-based, mouse", "conditions": "API 10, 20, 30, 40, 50 μM, 24 h", "protocol": "Panc02 and UN-KC-6141 cells were seeded in 6-well plates allowed to grow to 50-60% confluency. Cells were then treated with API at a dose-dependent concentration (10, 20, 30, 40, 50 μM) or DMSO (1%) as vehicle control and incubated for 24 h at 37° C. in a humidified atmosphere of 5% CO2. Cells were collected and stained with a FITC Annexin V Apoptosis Detection Kit I (BD Bioscience, San Jose, CA, USA) according to the manufacturer's instructions. Acquisition of samples was performed using a flow cytometer BD LSRII (BD Biosciences Immunocytometry Systems, San Jose, CA, USA). FlowJo v10.8 software (TreeStar Inc., Ashland, OR, USA) was used for data analysis."}, "SHIP-1 [1]": {"tested_on": "SHIP-1", "experiment": "SHIP-1 gene and protein expression in OPC mice", "format": "in vivo, mouse", "conditions": "API 25 mg/kg IP 3 times per week for 2-3 weeks, vs OPC mice", "protocol": "The inventors reported recently that API reduced tumor growth in an orthotopic (O) mouse model of PC (OPC)^12, which is a more clinically relevant model^69. To investigate if API targets miR-155 and regulates SHIP-1 expression in the BM and tumor of an OPC mouse model, OPC mice were treated with API at a dose of 25 mg/kg (IP) 3 times per week for 2-3 weeks.\nTo generate orthotopic pancreatic models (OPC), anesthetized (1.5-3% isoflurane) mice were injected in the neck of the pancreas, via laparotomy^59, with sterile PBS (CTRL) or 1.25×10^4 Panc02 cells (OPC), in sterile 1×PBS. […]\nIsolation of total RNA from digested pancreatic tumors and BM cells was performed using a RNeasy Mini Kit (Qiagen), according to the manufacturer's instructions. RT-PCR of quantified and normalized total RNA was performed using a High-Capacity cDNA RT Kit with an RNase Inhibitor (Applied Biosystems), according to the manufacturer's instructions. […]\nSingle-cell suspensions of BM, digested pancreatic tumors cells and UN-KC-6141 cells treated with API (40 μM) were lysed with radioimmunoprecipitation buffer (Sigma-Aldrich), quantified with a BCA Protein Assay kit (Thermo Fisher Scientific, Waltham, MA, USA), resolved by SDS-PAGE (Thermo Fisher Scientific) and transferred onto a nitrocellulose membrane as previously described. […]"}, "SHIP-1 [2]": {"tested_on": "SHIP-1", "conditions": "API-treated OPC mice, previous findings (ref 12); cited from earlier work"}}, "data": [{"smiles": "O=c1cc(-c2ccc(O)cc2)oc2cc(O)cc(O)c12", "note": "[API, 40,5,7-Trihydroxyflavone, 5,7-Dihydroxy-2-(4-hydroxyphenyl)-4-benzopyrone]", "values": [{"measurement": "apoptosis (Annexin V and PI)", "setting": "Panc02 cells", "value": "induces apoptosis"}, {"measurement": "SHIP-1 gene expression in BM", "setting": "SHIP-1 [1]", "value": "significantly increased"}, {"measurement": "SHIP-1 protein expression in BM", "setting": "SHIP-1 [1]", "value": "significantly increased"}, {"measurement": "SHIP-1 gene expression in pancreatic tumor", "setting": "SHIP-1 [2]", "value": "increased"}, {"measurement": "SHIP-1 protein expression in pancreatic tumor", "setting": "SHIP-1 [2]", "value": "increased"}]}]}
